Values after ≈ are worked out from the molar mass of the structure shown.
Tests used:
FGFR = details: cited from earlier work
[1] = Solubility in buffers with different pHs and in water (Example 19); assay type: physicochemical; details: for solubility at 30 min: 37 °C, thermodynamic from solid
Procedure: The solubility results were all calculated based on the free form. The buffers with different pHs were prepared according to the United States Pharmacopeia (USP40-NF35).

- solubility at 30 min ([1]; pH 1.2 buffer (USP), pH 1.2, simulated gastric fluid, pH 1.2 buffer, 30 minutes, calculated based on the free form): 721 µg/mL (≈ 1420 µM)
- solubility at 30 min ([1]; pH 2.1 buffer (USP), pH 2.1, aqueous buffer, pH 2.1 buffer, 30 minutes, calculated based on the free form): 174 µg/mL (≈ 342 µM)
- solubility at 30 min ([1]; pH 4.5 buffer (USP), pH 4.5, aqueous buffer, pH 4.5 buffer, 30 minutes, calculated based on the free form): ≤ 12600 µg/mL
- Solubility ([1]; pH 4.5 buffer, 37° C., 30 minutes, calculated based on the free form): 12588.8 µg/mL (≈ 24700 µM)
- solubility at 30 min ([1]; pH 6.8 buffer (USP), pH 6.8, aqueous buffer, pH 6.8 buffer, 30 minutes, calculated based on the free form): 67.5 µg/mL (≈ 133 µM)
- solubility at 30 min ([1]; purified water, water, 30 minutes, calculated based on the free form): 2.3 µg/mL (≈ 4.52 µM)
SMILES: CNC(=O)c1cc(CCc2cnc(Nc3ccc(N4C[C@@H](C)N[C@@H](C)C4)cc3)nc2)c(Cl)c(OC)c1 [Compound 78, 4-chloro-3-(2-(2-((4-((3S,5R)-3,5-dimethylpiperazin-1-yl)phenyl)amino)pyrimidin-5-yl)ethyl)-5-methoxy-N-methylbenzamide]
- Inhibition of FGFR activity (FGFR): can effectively inhibit FGFR activity
- Solubility (in words) ([1]; all test media): greatly different solubility in different media

Source: patent US12559472B2, “Salts of a compound and the crystalline forms thereof” (HUTCHISON MEDIPHARMA LIMITED, priority 2019, dated 2026)
